Results published in PubChem BioAssay (NCI).
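Growth conditions: 96-well plates. Treatment: test compound, 48 hours, 5 concentrations. Analysis: linear interpolation between bracketing concentrations; unreached endpoints set to highest concentration. TGI is the concentration that stops growth completely.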

Key:
Test in all cases: inhibition of tumour cell growth, NCI panel, 48 h
DMS 273 small cell lung = test system: DMS 273 small cell lung
M19-MEL melanoma = test system: M19-MEL melanoma
DMS 114 small cell lung = test system: DMS 114 small cell lung
KM20L2 colon = test system: KM20L2 colon
DLD-1 colon = test system: DLD-1 colon
LXFL 529 NSCLC = test system: LXFL 529 NSCLC
XF 498 CNS = test system: XF 498 CNS
HOP-18 NSCLC = test system: HOP-18 NSCLC

| Structure (SMILES) | TGI (DMS 273 small cell lung) [µM] | TGI (M19-MEL melanoma) [µM] | TGI (DMS 114 small cell lung) [µM] | TGI (KM20L2 colon) [µM] | TGI (DLD-1 colon) [µM] | TGI (LXFL 529 NSCLC) [µM] | TGI (XF 498 CNS) [µM] | TGI (HOP-18 NSCLC) [µM] |
| --- | --- | --- | --- | --- | --- | --- | --- | --- |
| NC(=O)NC1=NC(Cc2ccccc2)C(=O)N1Cc1ccccc1 (centres undefined) | > 100 | > 100 | > 100 | > 100 | > 100 | > 100 | > 100 |  |
| Cc1c(C(=O)/C=C/c2c(Cl)cccc2Cl)c(=O)n(-c2ccccc2)n1C | 33.7 | > 100 | > 100 | > 100 |  | 31.1 | 71 |  |
| C=C(Br)C(C)(Br)CCC(Br)C(C)(C)Br (centres undefined) | 42.9 | 35.8 | 31.6 |  | > 100 | 45.2 |  | > 100 |
